According to ChEMBL document CHEMBL1155505, “Penicinoline, a new pyrrolyl 4-quinolinone alkaloid with an unprecedented ring system from an endophytic fungus Penicillium sp” (Bioorg Med Chem Lett, 2010):
In brackets after ≈: the same amount, converted by molar mass.

Columns and labels:
Uromyces viciae-fabae = test: […] activity against Uromyces fabae; assay type: functional
Aphis gossypii = test: Insecticidal activity against Aphis gossypii; assay type: functional
HepG2 = test: Cytotoxicity against human HepG2 cells; assay type: functional, cell-based
HEp-2 = test: Cytotoxicity against human Hep2 cells; assay type: functional, cell-based
Zymoseptoria tritici = test: […] activity against Septoria tritici; assay type: functional
Plutella xylostella = test: Insecticidal activity against Plutella xylostella; assay type: functional
[1] = Cytotoxicity against human KBv200 cells; assay type: functional, cell-based
HeLa = test: Cytotoxicity against human HeLa cells; assay type: functional, cell-based
[2] = Cytotoxicity against human 95-D cells; assay type: functional, cell-based
Heliothis virescens = test: Insecticidal activity against Heliothis virescens; assay type: functional
KB = test: Cytotoxicity against human KB cells; assay type: functional, cell-based

Compound	min. effective conc. (Uromyces viciae-fabae) [ppm]	min. effective conc. (Aphis gossypii) [ppm]	IC50 (HepG2) [µg/mL]	IC50 (HEp-2) [µg/mL]	min. effective conc. (Zymoseptoria tritici) [ppm]	min. effective conc. (Plutella xylostella) [ppm]	IC50 [1] [µg/mL]	IC50 (HeLa) [µg/mL]	IC50 [2] [µg/mL]	min. effective conc. (Heliothis virescens) [ppm]	IC50 (KB) [µg/mL]
O=C(O)c1c(-c2ccc[nH]2)[nH]c2ccccc2c1=O [PENICINOLINE]	> 1000	1000	6.5 (≈ 25.6 µM)	> 100	> 1000	> 1000	> 100	> 100	0.57 (≈ 2.24 µM)	> 1000	> 100
Cn1c2c(c(=O)c3ccccc31)C(=O)n1cccc1-2 [PENICINOTAM]	> 1000	1000	–	–	> 1000	500	–	–	–	> 1000	–
